# Values quoted from earlier work, collected in PMC12375981 (Protein Science : A Publication of the Protein Society, 2025).
# Marks after values point to notes of the source that are not given here.
# Key:
# SARS‐CoV‐2 3CL^pro = settings: cited from earlier work
# WT 3CL^pro = WT 3CL^pro (Severe acute respiratory syndrome coronavirus 2, UniProt P0DTD1); settings: cited from earlier work
Structure (SMILES),increase of the strength of dimerization (SARS‐CoV‐2 3CL^pro),K D ^app (WT 3CL^pro)
CC(C)(C)[C@H](NC(=O)C(F)(F)F)C(=O)N1C[C@H]2[C@@H]([C@H]1C(=O)N[C@H](C#N)C[C@@H]1CCNC1=O)C2(C)C [nirmatrelvir],about seven,–
COc1cccc2[nH]c(C(=O)N[C@@H](CC(C)C)C(=O)N[C@@H](C[C@@H]3CCNC3=O)C(=O)COP(=O)(O)O)cc12 [lufotrelvir],–,17 ± 2 ^b nM
